For series [1], the target named is mGluR2 (Homo sapiens, UniProt Q14416). Conditions: antagonist; read-out: IC50 against mGluR2; cited from earlier work.
The target of series [2] is mGluR3 (Homo sapiens, UniProt Q14832). Conditions: antagonist; read-out: IC50 against mGluR3; cited from earlier work.
In series [3] the test system is Group I and Group III receptors. Conditions: at sub-mM concentrations; cited from earlier work.
The conditions of series [4]: not told; cited from earlier work.
In series [5] the test system is Human neural stem cells (hNSCs). The series can be described thus: Neuronal differentiation of human neural stem cells (TUJ-1 staining). Format: cell-based. Conditions: for pEC50: read-out: EC50 for neuronal differentiation, agent alone. Here is the method: Mitogen-free test media with 5 μM DHEA served as a positive control for neuronal differentiation, and basal media without growth factors served as a negative control.
The presence of synergy was determined by use of a combination index (CI). […] The CI is a quantitative measure of the nature of drug interactions, comparing the EC50's of two compounds, when each is assayed alone, to the EC50 of each compound when assayed in combination. The combination index (CI) is equal to the following formula: […]
where C1 and C2 are the concentrations of a first and a second compound, respectively, resulting in 50% activity in neuronal differentiation when assayed in combination; and IC1 and IC2 are the concentrations of each compound resulting in 50% activity when assayed independently.

Series [6] concerns mGlu7 and mGlu8. Conditions: at higher concentrations (e.g., above 1 μM); cited from earlier work.
The test system of series [7] is KA, AMPA, and NMDA iGlu receptors. Conditions: cited from earlier work.
Series [8] addresses human mGlu2 (Homo sapiens, UniProt Q14416). Conditions: read-out: EC50 against human mGlu2 receptors; agonist, in vitro; cited from earlier work.
Series [9] addresses human mGlu3 (Homo sapiens, UniProt Q14832). Conditions: read-out: EC50 against human mGlu3 receptors; agonist, in vitro; cited from earlier work.
Series [10] deals with Human neural stem cells (hNSCs). Conditions: maximum of curve.
Series [11] has the same test system. The series can be described thus: cells. Conditions: Neural stem cell, read-out: EC50 for astrocyte differentiation.
The conditions of series [12]: clinical reports; cited from earlier work.
The mark [13] stands for this setting: Homo sapiens, Neural stem cell, agent run independently, percentage of neuronal positive control, basal media values subtracted.
[14] abbreviates: agent run independently, percentage of neuronal positive control, basal media values subtracted.

pEC50, pIC50: −log10 of the molar value. Counter-ions that a name gives are not always drawn. A value given as a limit tells only on which side of the number the result lay.

Chain of mGluR2 (Q14416 19-872): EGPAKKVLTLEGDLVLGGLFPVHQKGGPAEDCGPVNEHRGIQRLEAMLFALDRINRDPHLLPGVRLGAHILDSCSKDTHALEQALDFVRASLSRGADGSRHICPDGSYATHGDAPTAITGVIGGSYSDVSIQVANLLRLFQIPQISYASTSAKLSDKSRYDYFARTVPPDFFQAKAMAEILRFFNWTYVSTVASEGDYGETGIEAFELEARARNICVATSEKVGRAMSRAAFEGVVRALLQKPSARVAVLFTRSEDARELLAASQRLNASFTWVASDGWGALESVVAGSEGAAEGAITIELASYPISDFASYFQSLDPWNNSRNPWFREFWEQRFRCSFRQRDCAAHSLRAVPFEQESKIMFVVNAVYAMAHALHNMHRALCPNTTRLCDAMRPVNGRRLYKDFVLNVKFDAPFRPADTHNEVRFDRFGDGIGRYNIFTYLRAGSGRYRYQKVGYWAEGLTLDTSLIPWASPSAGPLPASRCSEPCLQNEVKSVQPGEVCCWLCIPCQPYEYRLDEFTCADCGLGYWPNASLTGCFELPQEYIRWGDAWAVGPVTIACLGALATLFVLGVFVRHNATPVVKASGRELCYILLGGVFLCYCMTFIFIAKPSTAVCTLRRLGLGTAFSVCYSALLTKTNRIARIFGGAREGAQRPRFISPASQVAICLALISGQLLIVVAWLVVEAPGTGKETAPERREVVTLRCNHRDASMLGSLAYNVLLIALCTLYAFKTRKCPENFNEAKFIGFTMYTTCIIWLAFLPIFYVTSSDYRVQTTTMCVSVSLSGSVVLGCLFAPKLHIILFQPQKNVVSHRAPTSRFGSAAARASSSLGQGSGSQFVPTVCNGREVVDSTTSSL
Chain of human mGlu2 (Q14416 19-872): as above
Chain of mGluR3 (Q14832 23-879): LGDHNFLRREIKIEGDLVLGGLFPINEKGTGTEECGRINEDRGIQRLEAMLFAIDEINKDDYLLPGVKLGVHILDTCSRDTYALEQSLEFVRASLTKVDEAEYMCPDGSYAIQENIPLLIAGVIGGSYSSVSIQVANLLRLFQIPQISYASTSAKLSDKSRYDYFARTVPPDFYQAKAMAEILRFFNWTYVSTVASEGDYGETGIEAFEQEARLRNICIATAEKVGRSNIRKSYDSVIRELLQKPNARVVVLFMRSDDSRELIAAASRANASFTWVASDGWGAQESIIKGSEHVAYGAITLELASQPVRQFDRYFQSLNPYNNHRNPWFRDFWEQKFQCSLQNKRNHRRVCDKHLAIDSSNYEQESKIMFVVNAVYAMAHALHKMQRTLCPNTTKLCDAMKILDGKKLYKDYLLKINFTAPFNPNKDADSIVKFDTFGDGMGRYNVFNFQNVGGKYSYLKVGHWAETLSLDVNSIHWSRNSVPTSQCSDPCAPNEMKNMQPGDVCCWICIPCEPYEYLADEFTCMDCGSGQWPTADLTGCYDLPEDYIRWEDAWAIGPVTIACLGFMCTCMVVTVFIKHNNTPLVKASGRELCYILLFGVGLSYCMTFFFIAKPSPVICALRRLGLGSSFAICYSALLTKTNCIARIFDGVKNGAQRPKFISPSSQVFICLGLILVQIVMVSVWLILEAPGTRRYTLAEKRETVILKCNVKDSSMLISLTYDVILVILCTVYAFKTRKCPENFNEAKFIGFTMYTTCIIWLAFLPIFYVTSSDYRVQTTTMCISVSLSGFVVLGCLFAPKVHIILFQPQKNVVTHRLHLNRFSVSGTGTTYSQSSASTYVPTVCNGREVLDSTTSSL
Chain of human mGlu3 (Q14832 23-879): as above

Consider `NC1(C(=O)O)CCc2cc(P(=O)(O)O)ccc21` (racemic) [APICA, (RS)-1-amino-5-phosphonoindan-1-carboxylic acid], for which the pIC50 in series [1] and in [2] was around 4.52 in each case. In addition, the “activity against Group I or Group III receptors” value in series [3] was “no appreciable activity”. Consider `CNC(=O)Oc1ccc2c(c1)[C@]1(C)CCN(C)[C@@H]1N2C` (single isomer, unassigned) [Physostigmine, 1,2,3,3a,8,8a-hexahydro-1,3a,8-trimethyl-, methylcarbamate (ester) or (3aS,8aR)-pyrrolo(2,3-b)indol-5-ol], for which the blood-brain barrier permeability result in series [4] was “capable of crossing the blood-brain barrier”.

As to `NCC(CC(=O)O)c1ccc(Cl)cc1` (stereo not shown) [Baclofen], in series [5] (Homo sapiens, Neural stem cell), the pEC50 – broadly, −log10 of the EC50, conventionally taken in molar units – is 5.44.

In the case of `CSc1ccc(C(=O)c2[nH]c(=O)[nH]c2C)cc1` [Enozimone, enoximone], in [5] (setting [13]), the pEC50 is 5.17. As to `N[C@](CC1c2ccccc2Oc2ccccc21)(C(=O)O)[C@H]1C[C@@H]1C(=O)O` [LY341495, (2S)-2-amino-2-(1S,2S-2-carboxycycloprop-1-yl)-3-(xanth-9-yl)propanoic acid], the “activity against mGlu7 and mGlu8” value in series [6] is “antagonist activity”. The “activity against KA, AMPA, and NMDA iGlu receptors” value in series [7] was “substantially inactive”.

With `N[C@@]1(C(=O)O)CO[C@H]2[C@H](C(=O)O)[C@H]21` [LY379268, (−)-2-Oxa-4-aminobicyclohexane-4,6-dicarboxylic acid], the pEC50 in [8] and in [9] was above 8.00 each time. On to `Clc1ccc2c(c1)N=C(N1CCNCC1)c1ccccc1N2` [N-desmethylclozapine], for which the neurogenic activity entry in [5] (in assays as disclosed herein (not specified)) was “highly neurogenic”. `COC(=O)C(c1ccccc1)C1CCCCN1` (stereo not shown) [Ritalin, Methylphenidate hydrochloride]: in [5] (Homo sapiens, Neural stem cell), the pEC50 was 5.46. Consider `CN(CCOc1ccc(CC2SC(=O)NC2=O)cc1)c1ccccn1` (stereo not shown) [Rosiglitazone, rosiglitazone], for which the pEC50 in series [5] (setting [13]) was 6.03. Still for that read-out and setting: the result for `Nc1c2c(nc3ccccc13)CCCC2` [Tacrine, tetrahydroaminoacridine] reads 5.10. For `O=C1CC2(CCCC2)CC(=O)N1CCCCN1CCN(c2ncccn2)CC1` [buspirone], the pEC50 in series [5] (Homo sapiens, Neural stem cell) was 5.08; in series [11], 5.24. Also, in [10], the “maximum astrocyte differentiation, % of the positive control” value is listed as 60%.

Turning to `C[C@H](CS)C(=O)N1CCC[C@H]1C(=O)O` [captopril], the figures for the pEC50 in [5] (setting [13]) and in series [5] (setting [14]) were 5.42 and 5.70, respectively. `COc1cc2c(cc1OC)C(=O)C(CC1CCN(Cc3ccccc3)CC1)C2` (stereo not shown) [donepezil, 2,3-dihydro-5,6-dimethoxy-2-((1-(phenylmethyl)-4-piperidinyl)methyl)-1H-inden-1-one]: the pEC50 in series [5] (agent run independently, percentage of neuronal positive control, basal media values subtracted, listed as Donepezil) was 5.69; in [5] (setting [14]), 5.33. For `CNCCC(Oc1ccc(C(F)(F)F)cc1)c1ccccc1` (stereo not shown) [fluoxetine], the “reported side effects / dose limiting toxicities” value in series [12] was “sexual dysfunction and (rarely) agitation and increased suicidal thoughts”.

(Values after patent publication US7678363B2, “Methods of treating psychiatric conditions comprising administration of muscarinic agents in combination with SSRIs” (priority 2005, dated 2010).)
